Source: patent US20070161644A1, “Erastin analogs and uses thereof” (priority 2005, published 2007)
pIC50: −log10 of the molar value.

Tests used:
BJELR = assay: Sytox primary screen; assay type: cell-based; settings: Homo sapiens, Sytox screen, 48 hours, read-out: IC50 in BJELR
From the text: The Sytox primary screen is a phenotypic assay which monitors alterations in cell survival-proliferation as a result of compound treatment. It was devised as high throughput method to identify compounds which specifically alter the growth potential of cells harboring the causative mutations found in cancer patients while not affecting the growth of normal cells.
The assay relies upon an inexpensive, simple and reliable readout of a membrane impermeable fluorescent dye (Sytox, from Molecular Probes) which binds to nucleic acid. In healthy cells, no signal is detected because the cell's membrane is intact and the dye will not enter. However, if a cell's membrane is compromised as a result of apoptosis or necrosis, a fluorescent signal proportional to the number of similarly affected cells will be detected. By utilizing a two-step readout (final read in the presence of detergent to permit labeling of all cells), the assay can identify compounds which produce cytostasis, cytotoxicity and/or mitogenesis. The first read or “dead cell” read provides an estimate of the toxicity of a given compound by indicating the number of dead or dying cells in the culture at the time of assay. The second read or “total cell” read captures both the cumulative effects of cytoxicity in reducing the size of the cell population as well as any cytostatic or anti-proliferative effects a test compound may exert on the cells in the test population in the absence of toxicity.
For the purpose of screening, the previously described BJ-TERT line was defined as the “normal” reference cell line and BJ-TERT/LT/ST/RAS^V12 cells were the tumorigenic cell line. Cells were seeded overnight in 96 well plates at densities which without treatment would permit 95% confluence in the wells 72 H later. The following day, the cells were exposed to test compounds in a dilution series for a period of 48 hours. Following this incubation period, the Sytox reagent was added to the cultures at the manufacturer's recommended concentration and the dead cell fluorescence read was taken. After completion of this measurement, the detergent Saponin was added to each well of the cultures to permeabilize the membranes allowing the Sytox reagent to enter every cell thereby, facilitating measurement of the total number of cells remaining in the culture.

PANC-1 xenografts = assay: PANC-1 tumor treatment study; assay type: in vivo; settings: immunodeficient nude mouse; once a day for five consecutive days
Description: The experimental plan for the PANC-1 study was essentially identical to that of the HT-1080 study outlined above in Example 10 with the following exceptions: approximately 30-40 mg fragment of passaged PANC-1 tumor tissue was implanted subcutaneously in the right flank of an immunodeficient nude mouse. Tumor growth was monitored daily and when the tumors reached approximately 100 mm^3, animals harboring similarly sized tumors were group matched and compound dosing was initiated. Administration of compound 5 occurred once a day for five consecutive days at the doses listed below. In the PANC-1 xenografts, gemcitabine, administered at the maximum tolerated dose for the model, was used as a control. The gemcitabine regimen was 180 mg/kg […] on every third day over a period of 9 days.

HT-1080 xenografts = assay: HT-1080 tumor treatment study; assay type: in vivo, mouse; settings: nude Balb/c mice; 100 or 50 mg/Kg, QD×5 days, IP
Description: Nude Balb/c (Nu/Nu strain, Charles River Laboratories), female, 5-6 week. old (˜20 g average body weight).
Both compounds were formulated in an identical manner. For the 100 mg/kg dose level, each compound was delivered at a concentration of 10.0 mg/ml, in an injection volume of 0.2 ml. For the 50 mg/kg dose level, each compound was delivered at a concentration of 5.0 mg/ml, in an injection volume of 0.2 ml. For both dose levels, the vehicle contained 0.025% Tween-80, 0.01% benzyl alcohol, 35 mM acetic acid (HOAc), 100 mM potassium phosphate buffer, and 32 mM sucrose, pH=6.5.
Beginning when the mean tumor volume reached ˜200 mm^3, and continuing through day 5, every day, each animal was administered a single IP injection of one of the above treatments, for a total of 5 doses.
Each of 70 mice was implanted with 1×10^7 HT-1080 cells by SC injection of 0.1 cc of inoculum into the right hind flank. A 25 G×⅝″ needle size was used. […]
Starting on Day 1, all animals were weighed, and tumor dimensions (length (L) and width (W)) were measured, every other day. […]
The resulting tumor volume values were averaged for each study group for each time point, and were then plotted against time. Variance was expressed as standard error of the mean (±SEM).

[1] = system: BJ-TERT/LT/ST/RAS^V12 cells relative to BJ-TERT cells; assay: Alamar Blue viability assay, tumorigenic versus wild type cells; assay type: cell-based, human
Description: Alamar Blue is reduced by mitochondrial enzyme activity in viable cells, causing both colorimetric and fluorescent changes (Nociari et al., 1998, J. Immunol. Methods 13, 157-167). Cells were seeded at a density of 6000 cells (50 μl) per well in a 384-well black, clear bottom plate using a syringe bulk dispenser (Zymark). 10 μl was removed from a two-fold serially diluted erastin plate (6× final concentration) using a 384 fixed cannula head, making the final concentration 20 μg/ml in the well with highest concentration. The plates were incubated for 24 hours. Alamar Blue (Biosource International) was added to each well by diluting 1:10 and incubated for 16 hours at 37° C. Fluorescence intensity was determined using a Packard Fusion platereader with an excitation filter centered on 535 nm and an emission filter centered on 590 nm. Average percentage inhibition at each concentration was calculated. Error bars indicate one standard deviation.
The effect of erastin or erastin B on cell viability was measured using Alamar Blue as described in Example 3 in both tumorigenic BJ-TERT/LT/ST/RAS^V12 (BJELR) cells and wild type BJ-TERT (BJEH) cells. In this example, cell viability was measured at 1, 2, and 3 days after treatment with erastin or erastin B (data for days 1 and 3 not shown). Average percentage inhibition at each concentration was measured.
The effect on cell viability of each of the two isomers of Compound 20 was measured using the Alamar Blue assay described in Example 3 in both tumorigenic BJ-TERT/LT/ST/RAS^V12 cells and wild type BJ-TERT cells. Average percentage inhibition at each concentration was measured.
The effect on cell viability of erastin or Compound 21 was measured using the Alamar Blue assay as described in Example 3 in both tumorigenic BJ-TERT/LT/ST/RAS^V12 cells and in wild type BJ-TERT cells. Average percentage inhibition at each concentration was measured. […]

[2] = system: BJ-TERT/LT/ST/RAS^V12 cells; assay: Calcein AM viability assay, dilution series; assay type: cell-based, human; settings: within 18 hours; BJ-TERT/LT/ST/RAS^V12 cells
Description: Described here is work carried out to identify compounds with increased potency or activity in the presence of hTERT, LT, ST, E6, E7 or RAS^V12. Although the work described herein made use of hTERT, LT, ST, E6, E7 and RAS^V12 as transforming genes, future studies can make use of a wide variety of cancer-associated alleles using this methodology in order to define the signaling networks that involve many oncogenes and tumor suppressors. […] Cell viability was measured using the dye calcein acetoxymethyl ester (calcein AM) (Wang et al., 1993, Hum. Immunol. 37, 264-270), which is a non-fluorescent compound that freely diffuses into cells. […]
Calcein acetoxylmethyl ester (AM) is a cell membrane-permeable, non-fluorescent compound that is cleaved by intracellular esterases to form the anionic, cell-impermeable, fluorescent compound calcein. […] Total fluorescence intensity in each well was recorded on a Packard Fusion platereader, and converted to a percent inhibition of signal by subtracting the instrument background and dividing by the average signal obtained when cells were not treated with any compound. […]
Mean RFU (relative fluorescence units) for untreated cells was calculated by averaging columns 1, 2, and 23 (wells with cells but lacking compounds). The calcein background was calculated by averaging column 24 (wells with calcein, but lacking cells). […]

[3] = system: BJ-TERT/LT/ST/RAS^V12 cells; assay: Annexin V-FITC apoptosis assay; assay type: cell-based, human; settings: erastin-treated (9 μM); untreated 6%
Description: BJ-TERT/LT/ST/RAS^V12 cells were seeded at 1×10^6 cells per dish in 100 mm dishes and allowed to grow overnight. Cells were treated with erastin (5 or 10 μg/ml) for 6, 8 or 11 h. A camptothecin-treated (0.4 μg/ml) control was maintained, treated at the time of seeding for 20 hours. After the treatment, cells were harvested with trypsin/EDTA and washed once with fresh medium containing serum and then twice with phosphate buffered saline. Cells were resuspended in 1× binding buffer (BD Pharmingen) at a concentration of 1×10^6 cells/ml. 100 μl (1×10^5 cells) was incubated with 5 μl of Annexin V-FITC (BD Pharmingen) and propidium iodiode (BD Pharmingen) for 15 minutes in the dark at room temperature. Then 400 μl of the 1× binding buffer was added and the cells analyzed by flow cytometry (Becton-Dickinson). Data were acquired and analyzed using Cellquest software.

SMILES: CCOc1ccccc1-n1c(C(C)N2CCNCC2)nc2ccccc2c1=O (centres unmarked) [Compound 6]
- pIC50 (BJELR): ≤ 6.00
- antitumor activity in PANC-1 xenografts (PANC-1 xenografts): tumor growth inhibition
- antitumor activity in HT-1080 xenografts (HT-1080 xenografts): tumor growth inhibition

SMILES: CCOc1ccccc1-n1c(CN2CCN(CC#N)CC2)nc2ccccc2c1=O [Compound 7]
- pIC50 (BJELR): ≤ 7.00

SMILES: CCOc1ccccc1-n1c(C(C)N2CCN(C)CC2)nc2ccccc2c1=O (centres unmarked) [Compound 8]
- pIC50 (BJELR): ≤ 6.00

SMILES: CCOc1ccccc1-n1c(C(C)N2CCN(CCO)CC2)nc2ccccc2c1=O (centres unmarked) [Compound 9]
- pIC50 (BJELR): ≤ 6.00

SMILES: CCOc1ccccc1-n1c(CN2CCN(C)CC2)nc2ccccc2c1=O [Compound 10]
- pIC50 (BJELR): ≤ 6.00

SMILES: CCOc1ccccc1-n1c(CN2CCN(CC)CC2)nc2ccccc2c1=O [Compound 11]
- pIC50 (BJELR): ≤ 7.00

SMILES: CCOc1ccccc1-n1c(CN2CCCN(C)CC2)nc2ccccc2c1=O [Compound 12]
- pIC50 (BJELR): > 7.00

SMILES: CCOc1ccccc1-n1c(CN2CCCNCC2)nc2ccccc2c1=O [Compound 13]
- pIC50 (BJELR): > 7.00

SMILES: CCOc1ccccc1-n1c(C(C)N2CCNCC2)nc2cc(Cl)ccc2c1=O (centres unmarked) [Compound 14]
- pIC50 (BJELR): ≤ 7.00

SMILES: O=c1c2ccccc2nc(CN2CCNCC2)n1-c1c(Cl)cccc1Cl [Compound 16]
- pIC50 (BJELR): ≤ 7.00

SMILES: CCN1CCN(Cc2nc3ccccc3c(=O)n2-c2c(Cl)cccc2Cl)CC1 [Compound 17]
- pIC50 (BJELR): ≤ 7.00

SMILES: CCOc1ccccc1-n1c(CN2CCN(C(=O)COc3ccc(Cl)cc3)CC2)nc2ccccc2c1=O [Compound 21, 2-({4-[(4-chlorophenoxy)acetyl]piperazin-1-yl}methyl)-3-(2-ethoxyphenyl)quinazolin-4(3H)-one]
- lethality in BJ-TERT/LT/ST/RAS^V12 (BJELR) cells compared to BJ-TERT (BJEH) cells [1]: selective lethality
- profile compared to erastin ([1]; both cell types): profile nearly identical to that of erastin

SMILES: CCOc1ccccc1-n1c(C(C)N2CCN(C(=O)COc3ccc(Cl)cc3)CC2)nc2ccccc2c1=O (centres unmarked) [Erastin, 2-[1′-(N-(4″-chlorophenoxyacetyl)-N-piperazino]-ethyl]-3-(2′″-ethoxyphenyl)-quinazolin-4-one]
- effectiveness (cell death) [2]: 100%
- percentage of cells in M1 region (Annexin V staining) [3]: 6%
